Our source for the IC50 and inhibition values is US12378206B2, “Heteroaryl butanoic acid derivatives” (NOVARTIS AG, priority 2013, dated 2025).

The IC50 is the concentration that inhibits the measured activity by half. The inhibition is the relative decrease from the control value, in per cent.

Each structure is given as a SMILES string. Read-outs that look alike come from different tables or passages of the source.

The target of one assay is T1, human LTA4H (Homo sapiens, UniProt P09960).
T1 sequence (P09960 1-611): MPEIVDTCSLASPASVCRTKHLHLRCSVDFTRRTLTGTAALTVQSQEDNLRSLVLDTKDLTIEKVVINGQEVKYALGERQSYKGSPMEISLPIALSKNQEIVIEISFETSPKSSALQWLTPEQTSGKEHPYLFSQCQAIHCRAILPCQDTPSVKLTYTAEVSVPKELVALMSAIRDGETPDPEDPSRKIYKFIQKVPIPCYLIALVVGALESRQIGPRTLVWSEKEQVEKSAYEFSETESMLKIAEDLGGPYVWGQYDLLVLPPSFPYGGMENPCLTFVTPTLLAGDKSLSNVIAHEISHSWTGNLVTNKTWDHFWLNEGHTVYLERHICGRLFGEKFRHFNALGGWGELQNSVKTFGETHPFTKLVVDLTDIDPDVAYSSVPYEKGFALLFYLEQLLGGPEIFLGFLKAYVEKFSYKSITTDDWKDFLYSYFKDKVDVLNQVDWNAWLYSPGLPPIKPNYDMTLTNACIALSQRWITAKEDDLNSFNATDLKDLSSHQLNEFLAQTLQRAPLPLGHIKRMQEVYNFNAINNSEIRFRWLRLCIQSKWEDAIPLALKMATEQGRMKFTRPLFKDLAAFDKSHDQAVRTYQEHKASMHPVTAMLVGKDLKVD
As to the kind of experiment: Human LTA4H enzyme assay (Arg-AMC surrogate substrate, fluorescence). The conditions noted are these: read-out: ArgAMC IC50. The assay is classed as biochemical. On the procedure:
Leukotriene A4 hydrolase (LTA4H) catalyzes the vinylogous hydrolysis of the epoxide, leukotriene A4 (LTA4) into the pro-inflammatory mediator LTB4.
For compound testing, compounds are delivered as 10 mM stock solutions in 90% DMSO (10% water) in matrix tubes. […] The enzyme compound mixture is incubated at room temperature for 15 minutes prior to the addition of 50 μL substrate solution. A final substrate concentration of 600 μM, which is around the KM value of Arg-AMC, at a final enzyme concentration of 9 nM is chosen. Upon addition of the substrate, the plate is immediately placed in a fluorescence reader and the fluorescence is measured every 10 minutes for 60 minutes using the filter setting λexcitation=380 nm and λemission=460 nm. […] Raw data is converted to rate (moles per minute) using the AMC calibration curve calculated from the AMC standards. The data is analyzed in GraphPad Prism (GraphPad software Inc.) using non-linear regression to determine IC50 values of LTA4H inhibitors.

The test system of assay [1] is LTB4 biosynthesis in human whole blood. As to the kind of experiment: Human whole blood assay (hWB): inhibition of LTB4 biosynthesis after A23187 stimulation, ELISA. The assay is classed as cell-based. The method, then: Compounds are tested in a human whole blood assay (hWB) to test their ability to inhibit LTB4 biosynthesis in a human cellular system. To this end, fresh blood is collected in heparinized vacutainers by venipuncture from volunteers. Blood is diluted 1:3 with RPMI (Roswell Park Memorial Institute) medium and aliquots of 200 μL are transferred to 96-well round bottom cell culture plates. For compound testing, compounds are delivered as 10 mM stock solutions in 90% DMSO in matrix tubes. […] 4 μL of compound dilution or vehicle is added to 200 μL of blood and incubated for 15 min at 37° C. in a humidified incubator. Then blood is stimulated with 10 μg/ml calcium ionophore A23187 (Sigma) or equal volume DMSO (control) and incubated for an additional 15 min at 37° C. in a humidified incubator. Incubation is terminated by centrifugation at 300 g for 10 min at 22° C. Plasma supernatant is taken and transferred to a 96 well plate for eicosanoid determination by ELISA (Assay designs) according to the manufacturer's protocol after 1:20 dilution in assay buffer. The data is analyzed in GraphPad Prism (GraphPad software Inc.) using non-linear regression to determine IC50 values of LTA4H inhibitors.
For orientation: In an ELISA, binding on a coated surface is turned into a signal by an enzyme label.

The next assay has as its system LTB4 release. Nature of the assay: Murine PD assay: ex vivo A23187-stimulated LTB4 release in blood after p.o. dosing. Details: species or system female C57BL/6 mice. The settings on record: Mus musculus, po, read-out: PD effect [%] inhibition of LTB4 release. The method, then: LTA4H inhibitor compounds or vehicle control (30% PEG200 (70%), 5% Glucose) is applied per os (p.o.) in a dose of 0.3 mg/kg to female C57BL/6 mice (Charles River France). Three hours after application of compound, mice are terminally bled and blood is collected in heparinized tubes. Collected blood is diluted 1:3 in RPMI medium, added in 96-well round bottom cell culture plates and incubated with 10 μg/ml calcium ionophore A23187 (Sigma) or equal volume DMSO (control) for 15 min at 37° C. in a humidified incubator. Incubation is terminated by centrifugation at 300 g for 10 min at 22° C. Plasma supernatant is taken, diluted 1:10 in assay buffer and transferred to a 96 well plate for eicosanoid determination by ELISA (Assay designs) according to the manufacturer's protocol.

Where [2] appears, read: human whole blood diluted 1:3, 10 μg/ml calcium ionophore A23187, LTB4 by ELISA, read-out: hWB IC50.
[3] abbreviates: 0.3 mg/kg p.o., female C57BL/6 mice, blood taken 3 hours after application, ex vivo A23187 stimulation, versus vehicle control.
[4] abbreviates: Homo sapiens, read-out: hWB IC50 (nM).

Consider `N[C@H](CC(=O)O)Cn1nnc(-c2cccc(Oc3ccc(Cl)cc3)c2)n1` [Example 5, (R)-3-amino-4-(5-(3-(4-chlorophenoxy)phenyl)-2H-tetrazol-2-yl)butanoic acid], for which the values for the 50% inhibitory concentration (IC50) (on human LTA4H; in assay [1] (setting [2])) were 3 nM and 396 nM, respectively.

With `N[C@H](CC(=O)O)Cn1nnc(-c2ccc(Oc3ccc(F)c(Cl)c3)cc2)n1` [Example 8, (R)-3-amino-4-(5-(4-(3-chloro-4-fluorophenoxy)phenyl)-2H-tetrazol-2-yl)butanoic acid], the half-maximal inhibitory concentration (IC50) amounted to 3 nM at human LTA4H and 282 nM in assay [1] (setting [2]).

As for `Cc1ccc(Oc2ccc(-c3nnn(C[C@H](N)CC(=O)O)n3)cc2)cc1` [Example 9, (R)-3-amino-4-(5-(4-(p-tolyloxy)phenyl)-2H-tetrazol-2-yl)butanoic acid], the IC50 at human LTA4H is at most 2 nM; in assay [1] (setting [2]) it was 402 nM.

With `N[C@@H](CC(=O)O)Cn1nnc(-c2cccc(Oc3ccccc3)c2)n1` [Example 10, (S)-3-amino-4-(5-(3-phenoxyphenyl)-2H-tetrazol-2-yl)butanoic acid], the IC50 came to 4 nM on human LTA4H and 214 nM in assay [1] (setting [2]).

Turning to `N[C@H](CC(=O)O)Cn1nnc(-c2cccc(OCCc3ccccc3)c2)n1` [Example 13, (R)-3-amino-4-(5-(3-phenethoxyphenyl)-2H-tetrazol-2-yl)butanoic acid], the inhibition at 0.3 mg/kg in the assay with LTB4 release (setting [3]) is 55%. Besides, the 50% inhibitory concentration (IC50) at human LTA4H was at most 2 nM; in assay [1] (setting [2]) it was 86 nM.

For `N[C@H](CC(=O)O)Cn1nnc(-c2ccc(OCc3ccccc3)cc2)n1` [Example 15, (R)-3-amino-4-(5-(4-(benzyloxy)phenyl)-2H-tetrazol-2-yl)butanoic acid], in the assay with LTB4 release (3 h), the inhibition at 0.3 mg/kg amounted to 49%. Further, the IC50 is at most 2 nM at human LTA4H and 81 nM in assay [1] (setting [4]).

Turning to `N[C@H](CC(=O)O)Cn1nnc(-c2cccc(OCc3ccccc3)c2)n1` [Example 16, (R)-3-amino-4-(5-(3-(benzyloxy)phenyl)-2H-tetrazol-2-yl)butanoic acid], the inhibition at 0.3 mg/kg with LTB4 release (3 h) is 9%. Besides, the concentration for half-maximal inhibition (IC50) at human LTA4H was determined as 3 nM; in assay [1] (setting [4]), 165 nM.

Turning to `CCCCOc1ccc(-c2nnn(C[C@H](N)CC(=O)O)n2)cc1` [Example 17, (R)-3-amino-4-(5-(4-butoxyphenyl)-2H-tetrazol-2-yl)butanoic acid], the inhibition at 0.3 mg/kg with LTB4 release (3 h) was found to be 47%. The values for the IC50 (at human LTA4H; in assay [1] (setting [4])) were 4 nM and 183 nM, respectively.

Turning to `N[C@H](CC(=O)O)Cn1nnc(-c2cccc(Oc3ccc(C(F)(F)F)cn3)c2)n1` [Example 19, (R)-3-amino-4-(5-(3-((5-(trifluoromethyl)pyridin-2-yl)oxy)phenyl)-2H-tetrazol-2-yl)butanoic acid], the IC50 was 3 nM at human LTA4H and 273 nM in assay [1] (setting [4]).

In the case of `N[C@H](CC(=O)O)Cn1nnc(-c2ccc(Oc3ccc(C(F)(F)F)cn3)cc2)n1` [Example 20, (R)-3-amino-4-(5-(4-((5-(trifluoromethyl)pyridin-2-yl)oxy)phenyl)-2H-tetrazol-2-yl)butanoic acid], the IC50 at human LTA4H is 5 nM; in assay [1] (setting [2]), 270 nM.

As to `N[C@H](CC(=O)O)Cn1nnc(-c2cccc(Oc3nc4ccccc4s3)c2)n1` [Example 21, (R)-3-amino-4-(5-(3-(benzo[d]thiazol-2-yloxy)phenyl)-2H-tetrazol-2-yl)butanoic acid], the concentration for half-maximal inhibition (IC50) stood at 5 nM at human LTA4H and 209 nM in assay [1] (setting [2]).

For `N[C@H](CC(=O)O)Cn1nnc(-c2cccc(Oc3cc(F)cc(F)c3)c2)n1` [Example 22, (R)-3-amino-4-(5-(3-(3,5-difluorophenoxy)phenyl)-2H-tetrazol-2-yl)butanoic acid], the half-maximal inhibitory concentration (IC50) was 8 nM at human LTA4H and 294 nM in assay [1] (setting [2]).

As for `Cc1ccc(Oc2ccc(-c3nnn(C[C@@H](N)CC(=O)O)n3)cc2)cc1` [Example 23, (S)-3-amino-4-(5-(4-(p-tolyloxy)phenyl)-2H-tetrazol-2-yl)butanoic acid], the inhibition at 0.3 mg/kg with LTB4 release (setting [3]) was determined as 44%. Besides, the half-inhibitory concentration (IC50) at human LTA4H was at most 2 nM; in assay [1] (setting [2]) it was 173 nM.

As to `N[C@@H](CC(=O)O)Cc1nnc(-c2ccc(Oc3ccc(F)cc3)cc2)o1` [Example 24, (R)-3-amino-4-(5-(4-(4-fluorophenoxy)phenyl)-1,3,4-oxadiazol-2-yl)butanoic acid], the 50% inhibitory concentration (IC50) at human LTA4H was 3 nM; in assay [1] (setting [2]), 282 nM.

`N[C@@H](CC(=O)O)Cc1nnc(-c2ccc(Oc3ccc(Cl)cc3)cc2)o1` [Example 25, (R)-3-amino-4-(5-(4-(4-chlorophenoxy)phenyl)-1,3,4-oxadiazol-2-yl)butanoic acid]: the concentration for half-maximal inhibition (IC50) was found to be 3 nM on human LTA4H and 382 nM in assay [1] (setting [2]).

With `N[C@@H](CC(=O)O)Cc1nc(-c2ccc(Oc3ccc(Cl)cc3)cc2)no1` [Example 26, (R)-3-amino-4-(3-(4-(4-chlorophenoxy)phenyl)-1,2,4-oxadiazol-5-yl)butanoic acid], the half-inhibitory concentration (IC50) at human LTA4H amounted to 3 nM; in assay [1] (setting [2]), 126 nM.

On to `NC(=O)C[C@H](N)Cc1nc(-c2ccc(Oc3ccc(Cl)cc3)cc2)no1` [Example 27, (R)-3-amino-4-(3-(4-(4-chlorophenoxy)phenyl)-1,2,4-oxadiazol-5-yl)butanamide], for which the 50% inhibitory concentration (IC50) on human LTA4H amounted to 10 nM; in assay [1] (setting [2]), 218 nM.

In the case of `N[C@@H](CC(=O)O)Cn1cc(-c2ccc(Oc3ccc(Cl)cc3)cc2)cn1` [Example 28, (S)-3-amino-4-(4-(4-(4-chlorophenoxy)phenyl)-1H-pyrazol-1-yl)butanoic acid], the results for the 50% inhibitory concentration (IC50) (at human LTA4H; in assay [1] (setting [2])) were 3 nM and 728 nM, respectively.
